Data: article PMC9500072, “Topical application of an irreversible small molecule inhibitor of lysyl oxidases ameliorates skin scarring and fibrosis” (Nature Communications, 2022)
Like-named read-outs stand apart in the source and are kept apart here.

Assays:
Type in all cases: biochemical
recombinant human LOXL3 = target: T1, recombinant human LOXL3 (Homo sapiens, UniProt P58215); experiment: Amplex Red oxidation assay, LOXL3 inhibition
T1 construct: purchased R&D Systems
T1 sequence (P58215 26-753): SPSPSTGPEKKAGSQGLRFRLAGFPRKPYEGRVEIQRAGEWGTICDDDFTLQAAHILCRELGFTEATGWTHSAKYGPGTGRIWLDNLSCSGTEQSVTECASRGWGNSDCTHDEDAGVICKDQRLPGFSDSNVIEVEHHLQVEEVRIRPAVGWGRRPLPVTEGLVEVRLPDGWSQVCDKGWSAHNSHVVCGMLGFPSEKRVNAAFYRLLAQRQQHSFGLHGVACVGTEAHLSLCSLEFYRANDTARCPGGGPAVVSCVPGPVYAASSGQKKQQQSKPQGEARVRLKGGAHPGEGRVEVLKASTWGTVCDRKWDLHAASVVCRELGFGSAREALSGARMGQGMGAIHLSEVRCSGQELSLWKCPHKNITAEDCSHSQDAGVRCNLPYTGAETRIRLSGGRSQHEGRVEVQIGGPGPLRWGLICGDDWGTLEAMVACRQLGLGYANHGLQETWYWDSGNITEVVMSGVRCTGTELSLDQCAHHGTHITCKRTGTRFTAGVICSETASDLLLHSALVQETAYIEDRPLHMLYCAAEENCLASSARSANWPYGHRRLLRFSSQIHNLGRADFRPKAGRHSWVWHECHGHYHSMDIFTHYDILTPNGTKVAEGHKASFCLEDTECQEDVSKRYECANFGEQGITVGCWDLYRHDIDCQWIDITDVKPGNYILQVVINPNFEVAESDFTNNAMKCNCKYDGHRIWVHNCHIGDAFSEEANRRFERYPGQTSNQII
Experimental: (§1) The measurement of the enzymatic activity of all lysyl oxidase family members was based on the detection of hydrogen peroxide with an Amplex-Red oxidation assay, as previously described; miniaturized in 384 well formats, with the appropriate combination of substrate and assay buffer for each individual enzyme. After a 30 min pre-incubation of the enzyme at 37 °C with the test compound (or with different incubation times for the time-dependency assay), one volume of reaction mixture containing 120 μM Amplex Red (AR) (Life Technologies), 1.5 U/mL horseradish peroxidase (HRP) (Sigma-Aldrich) and the specific substrate was added to each sample. The relative fluorescence units (RFU) were then measured every 2.5 min for 30 min at 37 °C, excitation 565 nm and emission 590, on a BMG Clariostar Microplate Reader. All the substrates were used at concentrations corresponding to their Km towards the corresponding enzyme, or with a range of different concentrations for the substrate competition experiments.
(§2) Lysyl oxidases assay buffer contained 1.2 M urea, 50 mM sodium borate buffer, pH 8.2 and 100 µM β-aminoproprionitrile (BAPN, Sigma-Aldrich) was used for low control.
Recombinant human LOXL1 was expressed and purified from cDNA (GeneArt) and 10 mM putrescine was used as substrate. Recombinant human and mouse LOXL2 (R&D Systems) were challenged with 5 mM putrescine (Sigma-Aldrich) as the substrate. Rat and dog recombinant LOXL2 were amplified and purified in house from HEK-293 clones kindly provided by Dr. Fernando Rodríguez Pascual, Madrid University, and used in the same conditions as for the human form. 2 mM putrescine was used as the substrate for recombinant human LOXL3 (R&D Systems) and LOXL4 (Dr. Fernando Rodríguez Pascual, university of Madrid, Spain) assays.

Dog Recombinant LOXL2 = target: T2, Dog Recombinant LOXL2 (Canis lupus familiaris, UniProt A0A8I3P9Y5); experiment: Amine oxidase inhibition profile, dog LOXL2
T2 construct: made in house; host or cells: HEK-293 clones (provided by Dr. Fernando Rodríguez Pascual)
T2 sequence (A0A8I3P9Y5 1-777): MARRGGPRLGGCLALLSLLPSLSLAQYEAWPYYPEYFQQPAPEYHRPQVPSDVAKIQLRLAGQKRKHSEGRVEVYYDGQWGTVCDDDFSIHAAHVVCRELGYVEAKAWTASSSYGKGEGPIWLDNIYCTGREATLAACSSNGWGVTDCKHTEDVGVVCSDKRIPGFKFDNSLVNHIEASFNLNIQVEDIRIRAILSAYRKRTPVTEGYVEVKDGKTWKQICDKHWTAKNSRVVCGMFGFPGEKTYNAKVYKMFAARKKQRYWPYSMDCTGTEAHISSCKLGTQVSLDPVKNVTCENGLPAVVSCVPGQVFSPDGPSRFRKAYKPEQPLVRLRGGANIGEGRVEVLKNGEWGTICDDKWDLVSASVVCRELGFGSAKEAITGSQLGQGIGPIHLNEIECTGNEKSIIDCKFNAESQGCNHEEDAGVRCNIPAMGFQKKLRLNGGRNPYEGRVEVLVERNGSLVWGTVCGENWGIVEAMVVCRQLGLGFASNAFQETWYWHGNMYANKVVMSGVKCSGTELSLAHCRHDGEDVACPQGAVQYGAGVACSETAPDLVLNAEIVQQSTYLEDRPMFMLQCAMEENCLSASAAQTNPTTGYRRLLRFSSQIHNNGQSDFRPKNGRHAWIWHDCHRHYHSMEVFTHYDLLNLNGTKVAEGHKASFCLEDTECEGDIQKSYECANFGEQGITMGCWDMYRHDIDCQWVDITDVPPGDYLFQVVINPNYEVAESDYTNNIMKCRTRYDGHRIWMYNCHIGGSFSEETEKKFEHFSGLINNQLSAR

Rat Fibroblast LOX = target: T3, Rat Fibroblast LOX (Rattus norvegicus, UniProt P16636); experiment: Amine oxidase inhibition profile, rat fibroblast LOX
T3 construct: Fibroblast LOX; endogenous in cells; host or cells: rat fibroblasts
T3 sequence (P16636 163-411): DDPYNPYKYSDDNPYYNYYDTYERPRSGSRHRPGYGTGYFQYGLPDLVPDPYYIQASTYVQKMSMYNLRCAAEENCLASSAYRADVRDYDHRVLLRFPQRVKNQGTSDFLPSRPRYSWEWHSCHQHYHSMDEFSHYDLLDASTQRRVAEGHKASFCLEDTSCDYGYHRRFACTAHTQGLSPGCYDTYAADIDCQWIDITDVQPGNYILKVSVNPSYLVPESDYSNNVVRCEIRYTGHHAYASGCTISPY
Experimental: as §1, §2
Supplem entary Materi als:
Supplementary Table S1: Amine oxidase inhibition profile of PXS -4787, PXS-6302 and
Supplementary Table S2: Perm eability profile of PXS -6302.

[1] = 30 min pre-incubation, read-out: rh LOXL3 IC50
[2] = read-out: Human Recombinant LOXL3 pIC50±SD (converted)

| Compound | Human Recombinant LOXL3 pIC50±SD (recombinant human LOXL3) | IC50 (recombinant human LOXL3; [1]) [µM] | Dog Recombinant LOXL2 pIC50±SD (Dog Recombinant LOXL2) | IC50 (Dog Recombinant LOXL2) [µM] | IC50 (Rat Fibroblast LOX) [µM] | Rat Fibroblast LOX pIC50±SD (Rat Fibroblast LOX) | inhibition at 30 µM (recombinant human LOXL3; log conc -4.5229, read-out: Fig 2A inhibition (mean)) [%] | inhibition at 10 µM (recombinant human LOXL3; log conc -5, read-out: Fig 2A inhibition (mean)) [%] | inhibition at 3.333 µM (recombinant human LOXL3; log conc -5.4771, read-out: Fig 2A inhibition (mean)) [%] | inhibition at 1.111 µM (recombinant human LOXL3; log conc -5.9542, read-out: Fig 2A inhibition (mean)) [%] | inhibition at 0.3704 µM (recombinant human LOXL3; log conc -6.4313, read-out: Fig 2A inhibition (mean)) [%] | inhibition at 0.1235 µM (recombinant human LOXL3; log conc -6.9083, read-out: Fig 2A inhibition (mean)) [%] | inhibition at 0.0412 µM (recombinant human LOXL3; log conc -7.3851, read-out: Fig 2A inhibition (mean)) [%] | inhibition at 0.0137 µM (recombinant human LOXL3; log conc -7.8633, read-out: Fig 2A inhibition (mean)) [%] | inhibition at 0.0046 µM (recombinant human LOXL3; log conc -8.3372, read-out: Fig 2A inhibition (mean)) [%] | inhibition at […] (recombinant human LOXL3; log conc -8.8239, read-out: Fig 2A inhibition (mean)) [%] | inhibition at 0.0005 µM (recombinant human LOXL3; log conc -9.301, read-out: Fig 2A inhibition (mean)) [%] | IC50 (recombinant human LOXL3; [2]) [µM] |
| --- | --- | --- | --- | --- | --- | --- | --- | --- | --- | --- | --- | --- | --- | --- | --- | --- | --- | --- |
| N#CCCN [BAPN, β-aminoproprionitrile, reference compound] | 6.3 ± 0.1 | 0.51 | 6.3 ± 0.1 | 0.48 | 2.12 | 5.7 ± 0.1 | – | – | – | – | – | – | – | – | – | – | – | – |
| NC/C=C(\F)CS(=O)(=O)c1ccccc1 [PXS-4787] | – | 1.42 | – | 0.62 | 4.57 | – | 99.7 | 94.8 | 75.7 | 41.8 | 18.9 | 6.04 | -0.564 | 1.57 | -2.27 | -2.78 | -0.598 | 1.26 |
| NC/C=C(\F)C(F)(F)S(=O)(=O)c1ccccc1 [PXS-6302] | – | 1.54 | – | 0.34 | 8.57 | – | – | – | – | – | – | – | – | – | – | – | – | 1.58 |
